Results: patent US20040132803A1, “Agent for the treatment of overactive bladder” (priority 2003, published 2004)

Tests used:
Na^+ currents = assay: Voltage-clamp inward Na^+ currents in DRG cells; type: cell-based, rat
Protocol: (§1) Experiments were performed on adult female Sprague Dawley rats. First and second series of the experiments were performed, respectively, in unidentified DRG neurons and a specific population of DRG neurons innervating the urinary bladder. The population of DRG neurons that innervate the urinary bladder were labeled by retrograde axonal transport of the fluorescent dye, Fast Blue (4% w/v) (Polyloy, Gross Umstadt, Germany), injected into the wall of the bladder in halothane-anesthetized animals 7 days before the dissociation. The dye was injected with a 28 gauge needle at three to six sites on the dorsal surface of the organ (5-6 μL per site, total volume of 20-30 μL). Each injection site was washed with saline to minimize contamination of adjacent organs with the dye.
(§2) Freshly dissociated neurons from DRG were prepared from halothane-anesthetized animals. L6 and S1 DRG were dissected from animals and then dissociated in a shaking bath for 25 minutes at 35° C. with 5 mL DMEM (Sigma) containing 0.3 mg/mL trypsin (Type 3, Sigma), 1 mg/mL collagenase (Type 1, Sigma), and 0.1 mg/mL deoxyribonuclease (Type 4, Sigma). Trypsin inhibitor (Type 2a, Sigma) was then added thereto to neutralize the activity of trypsin. Individual DRG cell bodies were isolated by trituration and then plated on a poly-L-lysine-coated 35 mm Petri dishes.
(§3) Dye-labeled primary afferent neurons that innervate the urinary bladder were identified using an inverted phase-contrast microscope (Nikon, Tokyo, Japan) with fluorescent attachments (UV-1A filter; excitation wavelength, 365 nm). Gigaohm-seal whole-cell recordings were performed at room temperature (20-22° C.) on each labeled neuron in a culture dish that usually contained three to seven labeled cells among a few hundred unlabeled neurons. The internal solution contained (in mmol/L): KCl 140, CaCl2 1, MgCl2 2, EGTA 11, HEPES 10, Mg-ATP 2, and Tris-GTP 0.4 adjusted to pH 7.4 with KOH. Patch electrodes had resistances of 1-4 MΩ when filled with the internal solution. Neurons were superfused at a flow rate of 1.5 mL/minutes with an external solution containing (in mmol/L): NaCl 150, KCl 5, CaCl2 2.5, MgCl2 1, HEPES 10, and D-glucose 10, adjusted to pH 7.4 with NaOH. All recordings were made with an Axopatch-1D patch-clamp amplifier (Axon Instruments, Foster City, Calif.), and data were acquired and analyzed by PCLAMP software (Axon Instruments).
Inward Na^+ currents were evoked by voltage steps to +60 mV, 800 ms long from a holding potential of −90 mV. Currents were measured at the maximum (peak) and normalized to control (before addition of the compound).

[1] = test system: slowly-inactivating A-type K^+ currents; assay: Voltage-clamp outward K^+ currents at HP −90 mV in unidentified DRG neurons; type: cell-based, rat; settings: for K^+ current at HP: −90 mV, relative value (before compound = 1): unidentified DRG neurons
Protocol: as §1, §2, §3
In voltage-clamp recordings, outward K^+ currents and inward Na^+ currents were measured. For the isolation of K^+ currents, the external solution was changed to one containing (in mmol/L): choline-Cl 150, KOH 5, CaCl2 0.03, HEPES 10, Mg(OH)2 3, and D-glucose 10, adjusted to pH 7.4 with HCl.
In first series of experiments using unidentified DRG neurons, outward K^+ currents were evoked by voltage steps to +60 mV, 800 ms long from a holding potentials of −90 mV, this was followed by a 1-second conditioning prepulse to −20 mV followed by a second pulse to +60 mV, identical to the first in the sequence. In the second series of experiments using Fast Blue-labeled bladder afferent neurons, slowly-inactivating A-type K^+ currents were isolated by. subtraction of outward K^+ currents activated from a holding potential of −40 mV (on the condition of inactivation of the majority of slowly-inactivating A-type K^+ currents) from those activated from a holding potential of −120 mV (on the condition of full activation of slowly-inactivating A-type K^+ currents). A compound was added cumulatively, starting with a lower concentration. Currents were measured at the maximum (peak) and normalized to control (before addition of the compound).

spinal cord-injured rats = assay: Inhibition of detrusor hyperreflexia, cystometry in spinal cord-injured rats; type: in vivo, rat
Source text: Spinal cord injury was induced in rats.

[2] = test system: slowly-inactivating A-type K^+ currents; assay: Slowly-inactivating A-type K^+ currents in Fast Blue-labeled capsaicin-sensitive bladder afferent neurons; type: cell-based, rat; settings: 1.0 × 10^−6 mol/L
Protocol: as §1
Freshly dissociated neurons from DRG were prepared from halothane-anesthetized animals. […]
Dye-labeled primary afferent neurons that innervate the urinary bladder were identified using an inverted phase-contrast microscope (Nikon, Tokyo, Japan) with fluorescent attachments (UV-1A filter; excitation wavelength, 365 nm). […] All recordings were made with an Axopatch-1D patch-clamp amplifier (Axon Instruments, Foster City, Calif.), and data were acquired and analyzed by PCLAMP software (Axon Instruments).
In voltage-clamp recordings, outward K^+ currents and inward Na^+ currents were measured. […]

[3] = 0.001 mg/kg p.o., after 3 hours
[4] = 0.001 mg/kg p.o., after 5 hours

SMILES: C[C@](O)(C(=O)Nc1cccc2c1C(=O)c1sccc1CS2(=O)=O)C(F)(F)F [Compound 1, (S)-(+)-N-(5,5-dioxido-10-oxo-4,10-dihydrothieno[3,2-c][l]benzothiepin-9-yl)-3,3,3-trifluoro-2-hydroxy-2-methylpropanamide]
- influence upon Na^+ currents (Na^+ currents): does not exert influence
- Na^+ ion currents, normalized to control (Na^+ currents; 1.0 × 10^−6 mol/L): 0.99 ± 0.02
- Na^+ ion currents, normalized to control (Na^+ currents; 5.0 × 10^−4 mol/L): 1.00 ± 0.01
- Na^+ ion currents, normalized to control (Na^+ currents; 5.0 × 10^−5 mol/L): 1.00 ± 0.01
- Na^+ ion currents, normalized to control (Na^+ currents; 5.0 × 10^−6 mol/L): 1.00 ± 0.00
- Na^+ ion currents, normalized to control (Na^+ currents; 5.0 × 10^−7 mol/L): 0.99 ± 0.01
- Na^+ ion currents, normalized to control (Na^+ currents; 5.0 × 10^−8 mol/L): 0.99 ± 0.01
- K^+ current at HP: −90 mV, relative value ([1]; 1.0 × 10^−5 mol/L, in the presence of 5 μmol/L verapamil): 0.99 ± 0.02
- K^+ current at HP: −90 mV, relative value ([1]; 1.0 × 10^−5 mol/L, in the presence of 20 mmol/L tetraethylammonium): 1.19 ± 0.01
- K^+ current at HP: −90 mV, relative value (before compound = 1) ([1]; 1.0 × 10^−5 mol/L): 0.96 ± 0.05
- K^+ current at HP: −90 mV, relative value ([1]; 1.0 × 10^−6 mol/L, in the presence of 5 μmol/L verapamil): 1.11 ± 0.03
- K^+ current at HP: −90 mV, relative value ([1]; 1.0 × 10^−6 mol/L, in the presence of 20 mmol/L tetraethylammonium): 1.19 ± 0.05
- K^+ current at HP: −90 mV, relative value (before compound = 1) ([1]; 1.0 × 10^−6 mol/L): 1.06 ± 0.02
- K^+ current at HP: −90 mV, relative value ([1]; 1.0 × 10^−7 mol/L, in the presence of 5 μmol/L verapamil): 1.13 ± 0.02
- K^+ current at HP: −90 mV, relative value ([1]; 1.0 × 10^−7 mol/L, in the presence of 20 mmol/L tetraethylammonium): 1.10 ± 0.01
- K^+ current at HP: −90 mV, relative value (before compound = 1) ([1]; 1.0 × 10^−7 mol/L): 1.12 ± 0.03
- K^+ current at HP: −90 mV, relative value (before compound = 1) ([1]; 1.0 × 10^−8 mol/L): 0.99 ± 0.08
- K^+ current at HP: −90 mV, relative value (before compound = 1) ([1]; 2.5 × 10^−8 mol/L): 1.07 ± 0.03
- K^+ current at HP: −90 mV, relative value ([1]; 5.0 × 10^−4 mol/L, in the presence of 5 μmol/L verapamil): 0.61 ± 0.05
- K^+ current at HP: −90 mV, relative value ([1]; 5.0 × 10^−4 mol/L, in the presence of 20 mmol/L tetraethylammonium): 0.29 ± 0.02
- K^+ current at HP: −90 mV, relative value ([1]; 5.0 × 10^−4 mol/L, in the presence of 60 mmol/L tetraethylammonium): 0.56 ± 0.05
- K^+ current at HP: −90 mV, relative value ([1]; 5.0 × 10^−5 mol/L, in the presence of 5 μmol/L verapamil): 0.94 ± 0.02
- K^+ current at HP: −90 mV, relative value ([1]; 5.0 × 10^−5 mol/L, in the presence of 20 mmol/L tetraethylammonium): 0.91 ± 0.04
- K^+ current at HP: −90 mV, relative value ([1]; 5.0 × 10^−5 mol/L, in the presence of 60 mmol/L tetraethylammonium): 1.15 ± 0.08
- K^+ current at HP: −90 mV, relative value (before compound = 1) ([1]; 5.0 × 10^−5 mol/L): 0.83 ± 0.09
- K^+ current at HP: −90 mV, relative value ([1]; 5.0 × 10^−6 mol/L, in the presence of 5 μmol/L verapamil): 1.02 ± 0.03
- K^+ current at HP: −90 mV, relative value ([1]; 5.0 × 10^−6 mol/L, in the presence of 20 mmol/L tetraethylammonium): 1.16 ± 0.03
- K^+ current at HP: −90 mV, relative value ([1]; 5.0 × 10^−6 mol/L, in the presence of 60 mmol/L tetraethylammonium): 1.14 ± 0.05
- K^+ current at HP: −90 mV, relative value ([1]; 5.0 × 10^−7 mol/L, in the presence of 5 μmol/L verapamil): 1.17 ± 0.03
- K^+ current at HP: −90 mV, relative value ([1]; 5.0 × 10^−7 mol/L, in the presence of 20 mmol/L tetraethylammonium): 1.15 ± 0.04
- K^+ current at HP: −90 mV, relative value ([1]; 5.0 × 10^−7 mol/L, in the presence of 60 mmol/L tetraethylammonium): 1.11 ± 0.03
- K^+ current at HP: −90 mV, relative value (before compound = 1) ([1]; 5.0 × 10^−7 mol/L): 1.15 ± 0.03
- K^+ current at HP: −90 mV, relative value ([1]; 5.0 × 10^−8 mol/L, in the presence of 5 μmol/L verapamil): 1.03 ± 0.02
- K^+ current at HP: −90 mV, relative value ([1]; 5.0 × 10^−8 mol/L, in the presence of 20 mmol/L tetraethylammonium): 1.08 ± 0.02
- K^+ current at HP: −90 mV, relative value ([1]; 5.0 × 10^−8 mol/L, in the presence of 60 mmol/L tetraethylammonium): 1.08 ± 0.02
- K^+ current at HP: −90 mV, relative value (before compound = 1) ([1]; 5.0 × 10^−8 mol/L): 1.07 ± 0.02
- K^+ current at HP: −90 mV, relative value ([1]; 5.0 × 10^−9 mol/L, in the presence of 20 mmol/L tetraethylammonium): 1.02 ± 0.02
- K^+ current at HP: −90 mV, relative value (before compound = 1) ([1]; 5.0 × 10^−9 mol/L): 1.01 ± 0.03
- peak compound concentration for increase of slowly-inactivating A-type K^+ currents ([1]; unidentified DRG cells, HP −90 mV): 1e-07 to 5e-07 mol/L
- effect on micturition (physiological) contraction (spinal cord-injured rats): had no influence
- effect on pre-micturition contraction (detrusor overactivity) (spinal cord-injured rats): inhibited
- micturition contraction, relative to before administration = 100 (spinal cord-injured rats; 0.001 mg/kg p.o., after 1 hour): 106.5 ± 11.3%
- pre-micturition contraction, relative to before administration = 100 (spinal cord-injured rats; 0.001 mg/kg p.o., after 1 hour): 83.5 ± 6.8%
- micturition contraction, relative to before administration = 100 (spinal cord-injured rats; [3]): 101.7 ± 9.5%
- pre-micturition contraction, relative to before administration = 100 (spinal cord-injured rats; [3]): 95.4 ± 12.0%
- micturition contraction, relative to before administration = 100 (spinal cord-injured rats; [4]): 103.1 ± 6.5%
- pre-micturition contraction, relative to before administration = 100 (spinal cord-injured rats; [4]): 105.5 ± 20.8%
- micturition contraction, relative to before administration = 100 (spinal cord-injured rats; 0.01 mg/kg p.o., after 1 hour): 114.4 ± 9.5%
- pre-micturition contraction, relative to before administration = 100 (spinal cord-injured rats; 0.01 mg/kg p.o., after 1 hour): 59.6 ± 8.1 %
- micturition contraction, relative to before administration = 100 (spinal cord-injured rats; 0.01 mg/kg p.o., after 3 hours): 117.6 ± 13.9%
- pre-micturition contraction, relative to before administration = 100 (spinal cord-injured rats; 0.01 mg/kg p.o., after 3 hours): 51.2 ± 6.7 %
- micturition contraction, relative to before administration = 100 (spinal cord-injured rats; 0.01 mg/kg p.o., after 5 hours): 117.6 ± 12.7%
- pre-micturition contraction, relative to before administration = 100 (spinal cord-injured rats; 0.01 mg/kg p.o., after 5 hours): 42.2 ± 7.2 %
- micturition contraction, relative to before administration = 100 (spinal cord-injured rats; 0.1 mg/kg p.o., after 1 hour): 109.3 ± 6.3%
- pre-micturition contraction, relative to before administration = 100 (spinal cord-injured rats; 0.1 mg/kg p.o., after 1 hour): 52.3 ± 9.1 %
- micturition contraction, relative to before administration = 100 (spinal cord-injured rats; 0.1 mg/kg p.o., after 3 hours): 110.2 ± 5.4%
- pre-micturition contraction, relative to before administration = 100 (spinal cord-injured rats; 0.1 mg/kg p.o., after 3 hours): 33.3 ± 6.3 %
- micturition contraction, relative to before administration = 100 (spinal cord-injured rats; 0.1 mg/kg p.o., after 5 hours): 112.4 ± 7.0%
- pre-micturition contraction, relative to before administration = 100 (spinal cord-injured rats; 0.1 mg/kg p.o., after 5 hours): 28.5 ± 6.2 %
- A-type IK (HP: −120 mV)-(HP: −40 mV), normalized to control [2]: 1.26 ± 0.03
